Test results as given in ChEMBL document CHEMBL4831548, “Sesquiterpene Lactones from Sigesbeckia glabrescens Possessing Potent Anti-inflammatory Activity by Directly Binding to IKKα/β” (J Nat Prod, 2021).
Activity calls are given as the source filed them. No cut-off for these calls is given here.

Assays:
RAW264.7 [1] = assay: Inhibition of LPS-induced NO production in mouse RAW264.7 cells preincubated for 2 hrs followed by LPS stimulation for 24 hrs by Griess reagent based assay; format: functional, cell-based
RAW264.7 [2] = assay: Cytotoxicity against mouse RAW264.7 cells assessed as effect on cell viability up to 20 uM measured after 24 hrs by CCK8 assay; format: cell-based; conditions: raw264.7, 24 h
RAW264.7 [3] = assay: Anti-inflammatory activity against LPS-stimulated mouse RAW264.7 cells assessed as decrease in IL-6 production at 3 uM preincubated for 2 hrs followed by LPS stimulation and measured after 24 hrs by ELISA assay; format: functional, cell-based; conditions: time 26.0 hrs
RAW264.7 [4] = assay: Anti-inflammatory activity against LPS-stimulated mouse RAW264.7 cells assessed as decrease in TNF-alpha production at 3 uM preincubated for 2 hrs followed by LPS stimulation and measured after 24 hrs by ELISA assay; format: functional, cell-based; conditions: time 26.0 hrs
RAW264.7 [5] = assay: Inhibition of LPS-induced NO production in mouse RAW264.7 cells at 3 uM incubated for 2 hrs followed by LPS stimulation and measured after 24 hrs by Griess reagent based assay; format: functional, cell-based; conditions: time 26.0 hrs
RAW264.7 [6] = assay: Anti-inflammatory activity against LPS-stimulated mouse RAW264.7 cells assessed as decrease in IL-1 beta production at 3 uM preincubated for 2 hrs followed by LPS stimulation and measured after 24 hrs by ELISA assay; format: functional, cell-based; conditions: time 26.0 hrs
RAW264.7 [7] = assay: Inhibition of LPS-induced PGE2 production in mouse RAW264.7 cells at 3 uM preincubated for 2 hrs followed by LPS stimulation and measured after 24 hrs by ELISA assay; format: functional, cell-based; conditions: time 26.0 hrs
RAW264.7 [8] = assay: Inhibition of ERK phosphorylation in LPS-induced mouse RAW264.7 cells at 0.75 to 3 uM preincubated for 2 hrs followed by LPS stimulation and measured after 30 mins by immunoblotting assay; conditions: dose 0.75-3 µM, time 150.0 min
RAW264.7 [9] = assay: Anti-inflammatory activity against LPS-stimulated mouse RAW264.7 cells assessed as decrease in IL-6 production at 0.75 to 3 uM preincubated for 2 hrs followed by LPS stimulation and measured after 24 hrs by ELISA assay; format: functional, cell-based; conditions: dose 0.75-3 µM, time 26.0 hrs
[10] = biological target: T1, Inhibitor of nuclear factor kappa-B kinase subunit alpha/beta (Mus musculus) (UniProt Q60680+O88351); assay: Inhibition of IKKalpha/beta phosphorylation in LPS-induced mouse RAW264.7 cells incubated for 2 hrs followed by LPS stimulation and measured after 5 mins by immunoblotting assay; conditions: dose 0.75-3 µM, time 125.0 min
[11] = Covalent binding affinity to dithiothreitol assessed as compound-DTT adduct formation at 50 uM incubated for 30 mins by UPLC-MS analysis
RAW264.7 [12] = assay: Anti-inflammatory activity against LPS-stimulated mouse RAW264.7 cells assessed as decrease in IL-1 beta production at 0.75 to 3 uM preincubated for 2 hrs followed by LPS stimulation and measured after 24 hrs by ELISA assay; format: functional, cell-based; conditions: dose 0.75-3 µM, time 26.0 hrs
RAW264.7 [13] = assay: Anti-inflammatory activity against LPS-stimulated mouse RAW264.7 cells assessed as decrease in TNF-alpha production at 0.75 to 3 uM preincubated for 2 hrs followed by LPS stimulation and measured after 24 hrs by ELISA assay; format: functional, cell-based; conditions: dose 0.75-3 µM, time 26.0 hrs
[14] = biological target: T1, Inhibitor of nuclear factor kappa-B kinase subunit alpha/beta (Mus musculus); assay: Inhibition of IKKalpha/beta in LPS-stimulated mouse RAW264.7 cells assessed as inhibition of IkappaB alpha phosphorylation at 3 uM preincubated with DTT for 30 mins and later incubated with cells for 2 hrs followed by LPS stimulation for 5 mins by immunoblot anlaysis; conditions: time 155.0 min
[15] = biological target: c-Jun N-terminal kinase (Mus musculus) (UniProt Q91Y86+Q9WTU6+Q61831); assay: Inhibition of JNK phosphorylation in LPS-induced mouse RAW264.7 cells at 0.75 to 3 uM preincubated for 2 hrs followed by LPS stimulation and measured after 30 mins by immunoblotting assay; conditions: dose 0.75-3 µM, time 150.0 min
[16] = biological target: T1, Inhibitor of nuclear factor kappa-B kinase subunit alpha/beta (Mus musculus); assay: Inhibition of IKKalpha/beta in LPS-stimulated mouse RAW264.7 cells assessed as decrease in IkappaB degradation at 3 uM preincubated for 2 hrs followed by LPS stimulation for 10 mins by immunoblotting assay; conditions: time 130.0 min
RAW264.7 [17] = assay: Inhibition of LPS-induced PGE2 production in mouse RAW264.7 cells preincubated for 2 hrs followed by LPS stimulation and measured after 24 hrs by ELISA assay; format: functional, cell-based; conditions: dose 0.75-3 µM, time 26.0 hrs
[18] = biological target: T1, Inhibitor of nuclear factor kappa-B kinase subunit alpha/beta (Mus musculus); assay: Inhibition of IKKalpha/beta in LPS-stimulated mouse RAW264.7 cells assessed as inhibition of IkappaB alpha degradation at 3 uM preincubated with DTT for 30 mins and later incubated with cells for 2 hrs followed by LPS stimulation for 10 mins by immunoblot anlaysis; conditions: time 160.0 min
RAW264.7 [19] = assay: Inhibition of LPS-induced COX2 protein expression in mouse RAW264.7 cells at 0.75 to 3 uM preincubated for 2 hrs followed by LPS stimulation for 24 hrs by Western blot analysis; format: functional, cell-based; conditions: dose 0.75-3 µM, time 26.0 hrs
[20] = biological target: Inhibitor of NF-kappa-B kinase alpha/beta (Homo sapiens) (UniProt O14920+O15111); assay: Inhibition of IKKalpha/beta in human HEK293T cells assessed as reduction in thermal stability at 50 uM incubated for 30 mins followed by heating at temperature between 58 to 60 degC for 3 mins by CETSA analysis; format: cell-based; conditions: time 33.0 min
[21] = biological target: T1, Inhibitor of nuclear factor kappa-B kinase subunit alpha/beta (Mus musculus); assay: Inhibition of IKKalpha/beta in LPS-stimulated mouse RAW264.7 cells assessed as inhibition of NFkB p65 nuclear translocation at 3 uM preincubated for 2 hrs followed by LPS stimulation for 30 mins by immunoblotting assay; conditions: time 150.0 min
[22] = biological target: MAP kinase p38 (Mus musculus) (UniProt P47811+O08911+Q9WUI1+Q9Z1B7); assay: Inhibition of p38 MAPK phosphorylation in LPS-induced mouse RAW264.7 cells at 0.75 to 3 uM preincubated for 2 hrs followed by LPS stimulation and measured after 30 mins by immunoblotting assay; conditions: dose 0.75-3 µM, time 150.0 min
RAW264.7 [23] = assay: Inhibition of LPS-induced NO production in mouse RAW264.7 cells at 3 uM preincubated with DTT for 30 mins and later incubated with cells for 2 hrs followed by LPS stimulation for 24 hrs by Griess-reagent based assay; format: functional, cell-based; conditions: time 1590.0 min
RAW264.7 [24] = assay: Inhibition of LPS-induced iNOS protein expression in mouse RAW264.7 cells at 0.75 to 3 uM preincubated for 2 hrs followed by LPS stimulation for 24 hrs by Western blot analysis; format: functional, cell-based; conditions: dose 0.75-3 µM, time 26.0 hrs
[25] = biological target: T1, Inhibitor of nuclear factor kappa-B kinase subunit alpha/beta (Mus musculus); assay: Inhibition of IKKalpha/beta in LPS-stimulated mouse RAW264.7 cells assessed as inhibition of IkappaB alpha phosphorylation preincubated for 2 hrs followed by LPS stimulation for 5 mins by immunoblot anlaysis; conditions: dose 0.75-3 µM, time 125.0 min

c-Jun N-terminal kinase (Mus musculus), sequence (Q61831 whole entry, looked up): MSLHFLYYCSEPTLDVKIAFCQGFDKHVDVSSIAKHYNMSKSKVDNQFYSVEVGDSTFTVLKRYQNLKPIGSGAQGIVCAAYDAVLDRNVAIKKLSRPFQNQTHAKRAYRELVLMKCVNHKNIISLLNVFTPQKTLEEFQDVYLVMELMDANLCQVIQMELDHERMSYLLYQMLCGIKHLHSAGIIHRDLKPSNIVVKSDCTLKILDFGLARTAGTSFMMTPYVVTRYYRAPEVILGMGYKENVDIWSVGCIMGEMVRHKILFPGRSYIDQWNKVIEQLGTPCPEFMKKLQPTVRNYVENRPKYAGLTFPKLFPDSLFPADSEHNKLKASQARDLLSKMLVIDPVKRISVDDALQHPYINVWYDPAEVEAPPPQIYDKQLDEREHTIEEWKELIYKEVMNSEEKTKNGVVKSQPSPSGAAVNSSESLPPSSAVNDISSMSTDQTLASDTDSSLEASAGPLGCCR
c-Jun N-terminal kinase (Mus musculus), sequence (Q91Y86 whole entry, looked up): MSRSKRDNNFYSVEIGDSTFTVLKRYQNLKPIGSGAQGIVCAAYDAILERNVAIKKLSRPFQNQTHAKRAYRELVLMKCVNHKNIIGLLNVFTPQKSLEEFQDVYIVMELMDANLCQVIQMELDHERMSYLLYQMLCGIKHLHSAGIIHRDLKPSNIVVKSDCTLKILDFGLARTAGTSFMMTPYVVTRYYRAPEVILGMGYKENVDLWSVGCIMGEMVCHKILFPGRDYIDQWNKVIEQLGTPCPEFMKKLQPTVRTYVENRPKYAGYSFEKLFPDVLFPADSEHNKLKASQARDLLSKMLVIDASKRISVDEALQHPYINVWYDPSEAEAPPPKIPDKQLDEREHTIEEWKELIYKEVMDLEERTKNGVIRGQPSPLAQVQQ
c-Jun N-terminal kinase (Mus musculus), sequence (Q9WTU6 whole entry, looked up): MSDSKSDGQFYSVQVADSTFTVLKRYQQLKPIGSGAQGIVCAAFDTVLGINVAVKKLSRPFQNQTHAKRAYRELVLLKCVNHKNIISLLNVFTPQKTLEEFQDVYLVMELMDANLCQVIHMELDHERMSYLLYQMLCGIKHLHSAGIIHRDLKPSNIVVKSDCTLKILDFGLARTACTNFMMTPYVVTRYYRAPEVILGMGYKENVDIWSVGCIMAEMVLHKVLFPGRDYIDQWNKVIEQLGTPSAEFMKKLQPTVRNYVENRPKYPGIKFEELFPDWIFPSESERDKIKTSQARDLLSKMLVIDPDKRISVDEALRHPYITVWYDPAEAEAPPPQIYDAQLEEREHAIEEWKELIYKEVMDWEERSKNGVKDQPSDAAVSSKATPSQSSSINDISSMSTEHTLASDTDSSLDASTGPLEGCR

Row | SMILES | IC50 (RAW264.7 [1]) [µM] | Activity (RAW264.7 [2]) | further results
1 | C=C1C(=O)O[C@@H]2/C=C3/CC/C=C(\[C@H](O)OC3)[C@H](O)[C@@H](OC(=O)/C(C)=C/C)[C@@H]12 | > 20 | Non-Toxic | –
2 | C=C1C(=O)O[C@@H]2C[C@H](CO)CC/C=C(\COC(=O)C(C)C)C[C@@H](O)[C@@H]12 | > 20 | Non-Toxic | –
3 | C=C1C(=O)O[C@@H]2C[C@H]3CC/C=C(/C[C@@H](OC(=O)/C(C)=C/C)[C@@H]12)[C@H](O)OC3 | > 20 | Non-Toxic | –
4 | C=C1C(=O)O[C@@H]2/C=C(\CO)CCC=C(CO)[C@H](OC(C)=O)[C@@H](OC(=O)C(C)C)[C@@H]12 | 10.2 | Non-Toxic | –
5 | C=C1C(=O)O[C@@H]2C[C@H](CO)CC/C=C(\CO)C[C@@H](O)[C@@H]12 | > 20 | Non-Toxic | –
6 | C=C1C(=O)O[C@H]2[C@H]1[C@H](OC(=O)/C(C)=C/C)[C@@H](OC)C(=O)[C@@H]1CC[C@@](O)(CO)[C@H]21 | > 20 | Non-Toxic | –
7 | C=C1C(=O)O[C@@H]2/C=C(\CO)CC/C=C(\C=O)[C@H](OC(C)=O)[C@@H](OC(=O)/C(C)=C\C)[C@@H]12 | 16.5 | Non-Toxic | –
8 | C=C1C(=O)O[C@@H]2/C=C(\C)CC/C=C(\CO)C[C@@H](O)[C@@H]12 | > 20 | Non-Toxic | –
9 | C=C1C(=O)O[C@@H]2/C=C(\CO)CC/C=C(\C=O)[C@H](OC(C)=O)[C@@H](OC(=O)/C(C)=C/C)[C@@H]12 | > 20 | Non-Toxic | –
10 | C=C1C(=O)O[C@H]2[C@H]1[C@H](OC(=O)/C(C)=C\C)[C@@H](OC)C(=O)[C@@H]1CC[C@@](O)(CO)[C@H]21 | > 20 | Non-Toxic | –
11 | C=C(C)C(=O)O[C@@H]1C=C(C=O)[C@@H]2CC[C@@](O)(CO)[C@@H]2[C@H]2OC(=O)C(=C)[C@@H]21 | 15.4 | Non-Toxic | –
12 | C=C1C(=O)O[C@@H]2/C=C(\CO)CC/C=C(\C=O)[C@H](OC)[C@@H](OC(=O)C(C)C)[C@@H]12 | > 20 | Non-Toxic | –
13 | C=C1C(=O)O[C@@H]2/C=C3/CC/C=C(\[C@H](O)OC3)[C@H](OC)[C@@H](OC(=O)/C(C)=C\C)[C@@H]12 | > 20 | Non-Toxic | –

Now from value to compound, other results behind:

Row | IC50 (RAW264.7 [1]) [µM] | SMILES | Activity (RAW264.7 [2]) | further results
14 | 7.9 | C=C1C(=O)O[C@@H]2/C=C(\CO)CC/C=C(\C=O)[C@H](OC)[C@@H](OC(=O)/C(C)=C\C)[C@@H]12 | Non-Toxic | –
15 | 10 | C=C1C(=O)O[C@@H]2/C=C(\CO)CC/C=C(\CO)[C@H](OC(C)=O)[C@@H](OC(=O)/C(C)=C/C)[C@@H]12 | Non-Toxic | –
16 | 3.5 | COc1cc(/C=C/C(=O)CC(=O)/C=C/c2ccc(O)c(OC)c2)ccc1O [CURCUMIN] | – | Activity (RAW264.7 [3]): Active; Activity (RAW264.7 [4]): Active; inhibition (RAW264.7 [5]): Active; Activity (RAW264.7 [6]): Active; inhibition (RAW264.7 [7]): Active
17 | 2.3 | C=C1C(=O)O[C@@H]2C[C@H](CO)CC/C=C(\CO)C[C@@H](OC(=O)/C(C)=C\C)[C@@H]12 | Non-Toxic | –
18 | 1.4 | C=C1C(=O)O[C@@H]2C[C@H](COC(=O)/C(C)=C\C)CC/C=C(\CO)C[C@@H](O)[C@@H]12 | Non-Toxic | inhibition (RAW264.7 [1]; time 26.0 hrs): Dose-Dependent Effect; inhibition (RAW264.7 [8]): inactive; Activity (RAW264.7 [9]): Active; inhibition [10]: Dose-Dependent Effect; Activity [11]: Active; Activity (RAW264.7 [12]): Active; Activity (RAW264.7 [13]): Active; inhibition [14]: inactive; inhibition [15]: inactive; inhibition [16]: Active; inhibition (RAW264.7 [17]): Dose-Dependent Effect; inhibition [18]: inactive; inhibition (RAW264.7 [19]): Active; inhibition [20]: Active; inhibition [21]: Active; inhibition [22]: inactive; inhibition (RAW264.7 [23]): inactive; inhibition (RAW264.7 [24]): Active; inhibition [25]: Dose-Dependent Effect
19 | 3.4 | C=C1C(=O)O[C@@H]2C[C@H](CO)CCC=C(CO)C[C@@H](OC(=O)C(C)C)[C@@H]12 | Non-Toxic | –
20 | 9.9 | C=C(C)C(=O)O[C@H]1[C@H]2C(=C)C(=O)O[C@@H]2/C=C(\CO)CC/C=C(\CO)[C@@H]1OC(C)=O | Non-Toxic | –
21 | 9.3 | C=C1C(=O)O[C@@H]2/C=C(\CO)CC/C=C(\CO)[C@H](OC(C)=O)[C@@H](OC(=O)/C(C)=C\C)[C@@H]12 | Non-Toxic | –
22 | 2.7 | C=C(C)C(=O)O[C@@H]1C/C(CO)=C/CC[C@@H](CO)C[C@H]2OC(=O)C(=C)[C@H]12 | Non-Toxic | –
23 | 5.6 | C=C1C(=O)O[C@@H]2C[C@H](CO)CC/C=C(\CO)C[C@@H](OC(=O)C=C(C)C)[C@@H]12 | Non-Toxic | –
24 | 9.1 | C=C1C(=O)O[C@@H]2/C=C(\CO)CC/C=C(\C=O)[C@H](O)[C@@H](OC(=O)/C(C)=C\C)[C@@H]12 | Non-Toxic | –
25 | 6.9 | C=C1C(=O)O[C@@H]2C[C@H](CO)CC/C=C(\CO)C[C@@H](OC(=O)/C(C)=C/C)[C@@H]12 | Non-Toxic | –
